We go through eleven compounds from patent publication US9410217B2, “Method of reducing a fermentation and/or enzyme inhibitor in a saccharide-containing composition” (priority 2014, dated 2016).

SMILES strings stand for the structures. Values joined by “and” are separate entries in the source; they are usually repeats but may differ in a detail not shown here. Equal values may be shown once. Read-outs that look alike come from different tables or passages of the source.

Test [1] in a line: Reduction of HMF in sugar liquor after contact with amine. As to the method: Sugar liquor was prepared by a two-step hydrolysis process with subsequent refining. A slurry of particulate biomass was first subjected to a first hydrolysis step at about 190-240° C. and 50-80 bar for 1-120 min. The resulting solids were subjected to supercritical or near-critical water conditions at about 374-450° C. and 221-300 bar for less than 1 minute. The resulting liquid portion was concentrated to about 250-300 g/L of monomer sugar equivalent and acid hydrolyzed at about 100-200° C. for 1 hour. The acid-hydrolyzed liquor was filtered and neutralized with sodium hydroxide to a pH of about 5-7. After that, the liquid portion was overlimed with calcium oxide at pH of about 8-10 and filtered. The final pH adjustment to about 5-7 was done with 70% sulfuric acid. Overliming was performed to produce the sugar liquor used in these examples, and an aldehyde compound, HMF, subsequently re-added to simulate a sugar liquor that is not overlimed.
The pH of 100 g of the sugar liquor was adjusted to 6 with sodium hydroxide prior to addition of the amine. 1 g of m-phenylenediamine (MPD) was added to the sugar liquor, and the mixture was shaken for 1 hour.
Using the same procedure to prepare the sugar liquor as described in Example 1, the pH of 100 g of the sugar liquor was adjusted to 6 with NaOH prior to addition of the amine. For each sample, 1 g of amine was added, and the mixture was shaken for 1 hour.
Using the same procedure to prepare the sugar liquor as described in Example 1, the pH of 100 g of the sugar liquor was adjusted to 6 with sodium hydroxide prior to addition of the amine. For each sample, 1 g of amine was added, and the mixture was shaken for 1 hour.

Test [2] has as its system Saccharomyces cerevisiae. Put plainly: Fermentation test of treated sugar liquor with yeast. Format: cell-based. On the procedure:
The saccharide-containing compositions of Examples 1 and 3 were subjected to a fermentation test with the yeast Saccharomyces cerevisiae. In the fermentation test, 1% yeast extract and 2% peptone were added to the saccharide-containing compositions of Examples 1 and 3 as growth nutrients, and these compositions were then inoculated with 5% inoculum of Saccharomyces cerevisiae (optical density 10). If more than 80% of sugars were consumed in 72 hours of fermentation, the test is considered a “pass” (i.e., a satisfactory test result).
The saccharide-containing compositions were subjected to a fermentation test with the yeast Saccharomyces cerevisiae. In the fermentation test, 1% yeast extract and 2% peptone were added to the saccharide-containing compositions as growth nutrients, and these compositions were then inoculated with 5% inoculum of Saccharomyces cerevisiae (optical density 10). If more than 80% of sugars were consumed in 72 hours of fermentation, the test is considered a “pass” (i.e., a satisfactory test result).

The nature of test [3]: Reduction of syringaldehyde in xylose monomer stream (GC/MS). The settings on record: for Syringaldehyde: 100 g xylose monomer stream after treatment, shaken 30-60 min, untreated control 321.5 ppm; for syringaldehyde reduction (in words): xylose monomer stream, from about 321.5 ppm, pass is less than about 50 ppm. On the procedure: The acid-hydrolyzed liquor was filtered and then neutralized with sodium hydroxide to a pH of about 5-7 to produce the xylose monomer stream. Five samples labeled Samples 1-5 were evaluated as described in Table 2. Sample 1 was an untreated control. […] The flask was shaken for 30-60 min, and Samples 2 and 5 were then analyzed for syringaldehyde by GC/MS. […] The flask was shaken for about 30-60 min, adjusted to pH of about 5 with H2SO4, and then filtered. The resulting liquid portion was analyzed by GC/MS. For Sample 4, the pH of 100 g of the xylose monomer stream was adjusted to 5-6 with NH4OH, the flask was shaken for 30-60 min, and then the samples were analyzed by GC/MS.

Test [4] relates to Pichia stipitis. Put plainly: Fermentation testing of treated xylose monomer stream. Format: cell-based. As to the method: For fermentation testing, the pH was adjusted back to 5 with H2SO4 and fermentation was performed with the xylose fermenting organism Pichia stipitis.
Where [5] appears, read: sugar liquor after contact, 1 g amine per 100 g liquor, pH 6, shaken 1 hour.

On to `Cc1ccc(N)cc1N` [DAT, 2,4-diaminotoluene], for which, in test [1] (setting [5]), the HMF stood at 0.74 g/L. In addition, the figures for the “% Glucose Consumed” value in test [2] (24 hr), in test [2] (48 hr) and in test [2] (72 hr) were 51.55%, 96.03% and 95.88%, respectively. In addition, the Ethanol in test [2] (24 hr) turned out to be 43.15 g/L; in test [2] (48 hr), 92.29 g/L; in test [2] (72 hr), 86.38 g/L.

`Nc1cccc(N)c1` [MPD, m-phenylenediamine]: the Syringaldehyde entry in test [3] was “Not detected”. In test [3], the “syringaldehyde reduction (in words)” value is “below detectable levels”. Also, the Ethanol came to 1.80 g/L in test [4] (fermentation time 48 hr), 4.86 g/L in test [4] (fermentation time 72 hr), 8.22 g/L in test [4] (fermentation time 96 hr) and 77.25 g/L in test [2] (24 hr). Besides, the “fermentability of treated sample (in words)” value in test [4] (xylose monomer stream, pH adjusted back to 5) is given as “fermentable”. Besides, the HMF in test [1] (setting [5]) was 1.50 g/L. In addition, the “% Glucose Consumed” value in test [2] (24 hr) amounted to 95.64%.

Take `N.O` [NH4OH]: in test [3], the Syringaldehyde is given as 147.7 ppm and the “syringaldehyde reduction (in words)” value was “did not reduce the concentration of syringaldehyde to below a detectable level”.

As for `[BH4-].[Na+]` [NaBH4], in test [3], the Syringaldehyde was found to be 218.4 ppm and the “syringaldehyde reduction (in words)” value is “did not reduce the concentration of syringaldehyde to below a detectable level”.

In the case of `Nc1ccccc1N` [OPD, o-phenylenediamine], in test [2] (24 hr), the “% Glucose Consumed” value is given as 24.24% and the Ethanol amounted to 16.80 g/L. In addition, in test [2] (48 hr), the “% Glucose Consumed” value is listed as 96.61% and the Ethanol worked out at 86.88 g/L. In test [2] (72 hr), the “% Glucose Consumed” value was 96.53%, the Ethanol is 90.28 g/L and the HMF was found to be 0.36 g/L.

On to `Nc1ccc(N)cc1` [PPD, p-phenylenediamine], for which the HMF was 3.40 g/L in test [1] (setting [5]), 0.30 g/L in test [2] (24 hr) and 0.37 g/L in test [2] (48 hr). The “% Glucose Consumed” value in test [2] (24 hr) came to 24.18%; in test [2] (48 hr) it was 97.75%; in test [2] (72 hr), 97.40%. The Ethanol stood at 13.74 g/L in test [2] (24 hr), 84.75 g/L in test [2] (48 hr) and 84.79 g/L in test [2] (72 hr).

In the case of `Nc1ccccc1` [aniline], the HMF in test [1] (setting [5]) stood at 7.43 g/L. In test [2] (24 hr), the “% Glucose Consumed” value was 5.19%, the Ethanol worked out at 1.55 g/L and the HMF stood at 5.2 g/L. In addition, in test [2] (48 hr), the “% Glucose Consumed” value was determined as 5.19%, the Ethanol came to 1.51 g/L and the HMF came out at 4.89 g/L.

Consider `NCCO` [ethanolamine], for which the HMF was 6.01 g/L in test [1] (setting [5]); 5.24 g/L in test [2] (24 hr); 5.03 g/L in test [2] (48 hr); 4.67 g/L in test [2] (72 hr); 4.46 g/L in test [2] (120 hr). Besides, the “% Glucose Consumed” value amounted to 7.92% in test [2] (24 hr), 6.29% in test [2] (48 hr), 7.45% in test [2] (72 hr) and 12.73% in test [2] (120 hr). The Ethanol in test [2] (24 hr) came to 3.53 g/L; in test [2] (48 hr), 2.74 g/L; in test [2] (72 hr) it was 2.92 g/L; in test [2] (120 hr), 3.54 g/L.

Turning to `Nc1nc(N)nc(N)n1` [melamine], the HMF in test [1] (setting [5]) came out at 7.52 g/L; in test [2] (0 hr), 7.52 g/L; in test [2] (24 hr), 6.59 g/L; in test [2] (48 hr) it was 6.47 g/L; in test [2] (72 hr) it was 6.45 g/L. The “% Glucose Consumed” value came out at 0% in test [2] (0 hr), 4.24% in test [2] (24 hr), 4.15% in test [2] (48 hr) and 4.97% in test [2] (72 hr). Further, the Ethanol stood at 2.13 g/L in test [2] (24 hr), 2.48 g/L in test [2] (48 hr) and 2.1 g/L in test [2] (72 hr).

Take `C1CCNCC1` [piperidine]: the HMF in test [1] (pH 6) worked out at 6.13 g/L. Besides, in test [2], the “% Glucose Consumed” value is 5.39% and 8.05% and 5.62% and 5.78%; the Ethanol was 2.37 g/L and 2.49 g/L and 2.71 g/L and 2.15 g/L; the HMF is 5.31 g/L and 4.83 g/L and 5.51 g/L and 5.61 g/L.

On to `NC(N)=O` [urea], for which the HMF in test [1] (setting [5]) was determined as 7.44 g/L; in test [2] (0 hr) it was 7.44 g/L; in test [2] (24 hr), 6.58 g/L; in test [2] (48 hr), 6.49 g/L; in test [2] (72 hr), 6.06 g/L; in test [2] (120 hr), 5.66 g/L. Besides, the “% Glucose Consumed” value in test [2] (0 hr) turned out to be 0%; in test [2] (24 hr), 6.18%; in test [2] (48 hr) it was 4.49%; in test [2] (72 hr) it was 6.35%; in test [2] (120 hr), 8.49%. Further, the Ethanol in test [2] (0 hr) amounted to 1.38 g/L; in test [2] (24 hr), 2.72 g/L; in test [2] (48 hr) it was 2.23 g/L; in test [2] (72 hr), 2.39 g/L; in test [2] (120 hr) it was 2.41 g/L.
